Measured values published in US20160138077A1, “MONITORING AND ASSESSING DEACETYLASE ENZYME ACTIVITY” (THE GENERAL HOSPITAL CORPORATION, priority 2013, published 2016).

Assays:
Assay type in all cases: biochemical
[1] = target: T1, Pepsin (Sus scrofa, UniProt P00791); assay: LCMS assay of protease enzymatic action on HP-1 (HDAC buffer at pH 4); settings: −SAHA, 5 μM HP-1, 12 hours at 37° C.
T1 construct: purchased Sigma-Aldrich
Procedure: The enzymatic cleavage of HP-1 was analyzed by performing LCMS assays with sirtuin 1 and 3 (Cayman Chemicals) and the proteases chymotrypsin (Sigma-Aldrich), cathepsin (EMD Millipore), and pepsin* (Sigma-Aldrich). Solutions containing (i) vehicle with DMSO in HDAC buffer, (ii) 5 μM HP-1 in HDAC buffer, and (iii) 5 μM HP-1 and the enzyme in HDAC buffer were incubated for 12 hours at 37° C. Following incubation, a 20 μL aliquot of supernatant from each sample was analyzed by LCMS. Deacetylation of HP-1 was investigated by screening for the DHP-1 (M+H)^+ ion following positive electrospray ionization. All assay samples were analyzed in triplicate. […]
HP-1 was not altered by sirtuins 1 and 3 or the proteases chymotrypsin, cathepsin and pepsin, as determined by LCMS. […] For Cathepsin B, the cleavage of the enzyme substrate, z-RR-pNA (Santa Cruz Biotechnology, Dallas, Tex.) was monitored using a Wallac EnVision 2103 Multilabel fluorescence plate reader (PerkinElmer, Waltham, Mass.) with a 405 nm excitation filter, a 406 nm emission filter, and a gain of 150. The cleavage of the pepsin substrate, Ac-Phe-Tyr-OH (Chem-Impex Inc.), was monitored by LCMS at pH 4. […]

[2] = target: T2, HDAC3 (Homo sapiens, UniProt O15379); assay: Caliper microfluidic endpoint IC50 assay
T2 construct: purchased Cayman Chemicals
T2 sequence (O15379 whole entry): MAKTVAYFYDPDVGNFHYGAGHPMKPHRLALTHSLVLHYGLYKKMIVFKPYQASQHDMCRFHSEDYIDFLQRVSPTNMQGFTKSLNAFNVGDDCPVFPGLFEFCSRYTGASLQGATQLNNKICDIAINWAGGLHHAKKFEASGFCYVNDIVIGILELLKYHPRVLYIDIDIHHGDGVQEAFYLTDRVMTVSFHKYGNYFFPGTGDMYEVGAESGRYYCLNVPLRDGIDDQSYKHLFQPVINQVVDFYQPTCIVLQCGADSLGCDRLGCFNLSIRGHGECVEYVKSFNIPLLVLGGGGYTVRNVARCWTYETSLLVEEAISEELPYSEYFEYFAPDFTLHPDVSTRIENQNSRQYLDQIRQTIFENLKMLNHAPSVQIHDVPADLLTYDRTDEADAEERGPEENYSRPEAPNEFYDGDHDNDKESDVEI
T2 sequence (Q9Y618 395-489 partner limits assumed): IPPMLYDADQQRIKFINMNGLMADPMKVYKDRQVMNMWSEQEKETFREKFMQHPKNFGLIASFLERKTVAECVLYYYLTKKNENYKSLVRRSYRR
Procedure: (§1) HP-1 and HP-2 IC50 values for HDAC1 were determined using the Trypsin-coupled assay as well as the Caliper endpoint assay. HP-1 and HP-2 IC50 values for HDAC2, HDAC3, HDAC6 and HDAC8 were determined with the Caliper endpoint assay.
(§2) The Caliper microfluidic assay was performed at the Broad Institute exactly as previously described.^5
(§3) IC50 measurements. HP-1 and HP-2 IC50 values for HDAC1 were determined using the Trypsin-coupled assay as well as the Caliper endpoint assay. HP-1 and HP-2 IC50 values for HDAC2, HDAC3, HDAC6 and HDAC8 were determined with the Caliper endpoint assay (full experimental details in Example 1).

[3] = target: T3, HDAC6 (Homo sapiens, UniProt Q9UBN7); assay: Caliper microfluidic endpoint IC50 assay
T3 sequence (Q9UBN7 1-1215): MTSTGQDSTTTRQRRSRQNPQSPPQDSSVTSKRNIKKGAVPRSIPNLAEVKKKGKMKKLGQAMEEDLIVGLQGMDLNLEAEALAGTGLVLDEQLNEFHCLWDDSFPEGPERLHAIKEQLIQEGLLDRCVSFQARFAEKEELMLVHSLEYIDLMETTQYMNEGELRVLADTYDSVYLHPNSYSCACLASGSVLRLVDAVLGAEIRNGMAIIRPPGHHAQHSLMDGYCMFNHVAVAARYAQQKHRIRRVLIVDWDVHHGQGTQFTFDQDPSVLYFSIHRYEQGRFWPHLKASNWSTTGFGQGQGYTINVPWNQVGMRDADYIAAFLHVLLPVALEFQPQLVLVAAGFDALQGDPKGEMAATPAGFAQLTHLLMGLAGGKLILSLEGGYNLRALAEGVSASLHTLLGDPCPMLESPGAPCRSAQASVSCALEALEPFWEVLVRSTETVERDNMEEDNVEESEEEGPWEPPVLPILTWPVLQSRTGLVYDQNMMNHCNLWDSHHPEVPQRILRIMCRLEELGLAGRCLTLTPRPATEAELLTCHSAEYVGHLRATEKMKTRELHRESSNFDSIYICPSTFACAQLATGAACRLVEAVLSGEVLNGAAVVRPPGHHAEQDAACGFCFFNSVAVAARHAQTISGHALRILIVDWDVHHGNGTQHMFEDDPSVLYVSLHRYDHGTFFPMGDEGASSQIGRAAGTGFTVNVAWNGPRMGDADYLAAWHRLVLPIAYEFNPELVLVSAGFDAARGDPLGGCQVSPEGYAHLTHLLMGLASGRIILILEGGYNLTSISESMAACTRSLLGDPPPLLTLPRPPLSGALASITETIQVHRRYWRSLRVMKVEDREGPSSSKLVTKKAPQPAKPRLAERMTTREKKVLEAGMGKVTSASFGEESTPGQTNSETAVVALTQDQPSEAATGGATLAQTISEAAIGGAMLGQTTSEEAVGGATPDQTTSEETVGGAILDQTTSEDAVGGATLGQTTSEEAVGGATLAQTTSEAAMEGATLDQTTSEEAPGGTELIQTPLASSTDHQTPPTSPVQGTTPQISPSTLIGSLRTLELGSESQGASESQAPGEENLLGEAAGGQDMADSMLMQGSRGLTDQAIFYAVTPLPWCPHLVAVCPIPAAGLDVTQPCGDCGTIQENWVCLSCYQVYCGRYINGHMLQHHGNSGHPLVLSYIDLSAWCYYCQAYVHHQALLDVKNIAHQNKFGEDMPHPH
Procedure: as §1, §2, §3

[4] = target: HDAC2 (Homo sapiens, UniProt Q92769); assay: Caliper microfluidic endpoint IC50 assay
Sequence of HDAC2 (Q92769 whole entry, species assumed): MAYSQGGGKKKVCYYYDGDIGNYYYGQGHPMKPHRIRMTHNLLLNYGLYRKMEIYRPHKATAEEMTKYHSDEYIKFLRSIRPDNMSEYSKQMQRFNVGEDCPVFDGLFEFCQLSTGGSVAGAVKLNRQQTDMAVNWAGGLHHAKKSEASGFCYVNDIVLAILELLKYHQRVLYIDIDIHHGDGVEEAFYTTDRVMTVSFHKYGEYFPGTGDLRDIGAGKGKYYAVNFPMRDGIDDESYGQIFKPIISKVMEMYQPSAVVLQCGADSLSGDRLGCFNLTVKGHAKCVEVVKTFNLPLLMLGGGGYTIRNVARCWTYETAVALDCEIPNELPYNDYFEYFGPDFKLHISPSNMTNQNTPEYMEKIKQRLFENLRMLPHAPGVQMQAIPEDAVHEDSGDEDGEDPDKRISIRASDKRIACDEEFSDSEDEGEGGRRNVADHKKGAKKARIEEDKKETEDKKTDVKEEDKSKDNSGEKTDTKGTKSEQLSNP
Procedure: as §1, §2, §3

[5] = target: T4, HDAC8 (Homo sapiens, UniProt Q9BY41); assay: Caliper microfluidic endpoint IC50 assay
T4 construct: purchased Cayman Chemicals
T4 sequence (Q9BY41 1-377): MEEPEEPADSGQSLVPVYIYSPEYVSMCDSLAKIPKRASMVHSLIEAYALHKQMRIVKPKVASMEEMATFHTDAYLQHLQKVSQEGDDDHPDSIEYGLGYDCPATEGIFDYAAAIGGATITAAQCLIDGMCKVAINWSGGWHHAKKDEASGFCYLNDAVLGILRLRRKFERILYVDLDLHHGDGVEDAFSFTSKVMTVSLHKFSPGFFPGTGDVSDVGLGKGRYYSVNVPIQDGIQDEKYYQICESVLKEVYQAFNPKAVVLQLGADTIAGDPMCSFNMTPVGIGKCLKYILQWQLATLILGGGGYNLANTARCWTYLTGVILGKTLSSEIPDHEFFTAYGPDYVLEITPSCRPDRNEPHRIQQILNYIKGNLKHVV
Procedure: as §1, §2, §3

T1 sequence (P00791 60-385): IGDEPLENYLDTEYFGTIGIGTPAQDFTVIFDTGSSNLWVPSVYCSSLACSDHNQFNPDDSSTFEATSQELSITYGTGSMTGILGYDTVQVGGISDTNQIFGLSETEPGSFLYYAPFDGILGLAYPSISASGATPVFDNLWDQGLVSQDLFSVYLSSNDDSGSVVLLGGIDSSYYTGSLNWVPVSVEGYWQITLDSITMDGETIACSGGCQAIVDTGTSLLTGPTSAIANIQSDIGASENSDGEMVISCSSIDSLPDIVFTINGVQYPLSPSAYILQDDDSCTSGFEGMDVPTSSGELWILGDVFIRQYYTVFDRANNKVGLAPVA

CC(=O)NC=CCCCCNC(=O)CCCCCNc1ccc([N+](=O)[O-])c2nonc12 [HP-1]
% HP-1 to DHP-1 [1]: 0% | IC50 [2]: 59 µM | IC50 ([3]; HDAC6, Caliper endpoint assay): 12 µM | binding to HDAC6 (in words) ([3]; competitive inhibition with a peptide substrate): bind | IC50 [4]: > 70 µM | IC50 [5]: > 70 µM
